Measurements as given in patent US20250025443A1, “COMPOUNDS AND METHODS FOR TREATING CORONA VIRUSES” (CLEAR CREEK BIO, INC., priority 2021, published 2025).
Like-named read-outs stand apart in the source and are kept apart here.

Molecular target: SARS-CoV-2 Papain-Like Protease (PLpro) (Severe acute respiratory syndrome coronavirus 2 (2019-nCoV) (SARS-CoV-2), UniProt P0DTD1)
Assay: biochemical
Conditions: read-out: PLpro IC50
[1] = SARS-CoV-2 PLpro enzymatic fluorescence assay

SMILES | IC50 [1] [nM] | IC50 (PLpro enzymatic fluorescence assay, class symbols) [nM]
Cc1cc2ccn(C3CCC3)c2cc1C(=O)NC1(c2cccc3ccccc23)CC1 [Compound 296, 1-Cyclobutyl-5-methyl-N-(1-(naphthalen-1-yl)cyclopropyl)-1H-indole-6-carboxamide] | 100 to 1000 | –
Cc1cc2c(cc1C(=O)NC1(c3cccc4ccccc34)CC1)NCCN2 [Compound 297, 7-Methyl-N-(1-(naphthalen-1-yl)cyclopropyl)-1,2,3,4-tetrahydroquinoxaline-6-carboxamide] | 100 to 1000 | –
Cc1ccc(OCCN(C)C)cc1C(=O)NC1(c2ccccc2Oc2ccccc2)CC1 [Compound 298, 5-(2-(Dimethylamino)ethoxy)-2-methyl-N-(1-(2-phenoxyphenyl)cyclopropyl)benzamide] | 1000 to 5000 | –
Cc1ccc(OCCN(C)C)cc1C(=O)NC1(c2cccc3cnccc23)CC1 [Compound 299, 5-(2-(Dimethylamino)ethoxy)-N-(1-(isoquinolin-5-yl)cyclopropyl)-2-methylbenzamide] | < 100 | –
Cc1ccc(OCCN2CC(F)C2)cc1C(=O)NC1(c2cccc3ccccc23)CC1 [Compound 300, 5-(2-(3-Fluoroazetidin-1-yl)ethoxy)-2-methyl-N-(1-(naphthalen-1-yl)cyclopropyl)benzamide] | < 100 | –
Cc1ccc(OCCN(C)C)cc1C(=O)NC1(c2cccc3ncccc23)CC1 [Compound 301, 5-(2-(Dimethylamino)ethoxy)-2-methyl-N-(1-(quinolin-5-yl)cyclopropyl)benzamide] | < 100 | –
Cc1ccc(OCC2COCCN2C)cc1C(=O)NC1(c2cccc3ccccc23)CC1 (stereo not shown) [Compound 302, 2-Methyl-5-((4-methylmorpholin-3-yl)methoxy)-N-(1-(naphthalen-1-yl)cyclopropyl)benzamide] | 100 to 1000 | –
COc1ccc(OCCN(C)C)cc1C(=O)NC1(c2cccc3ccccc23)CC1 [Compound 303, 5-(2-(Dimethylamino)ethoxy)-2-methoxy-N-(1-(naphthalen-1-yl)cyclopropyl)benzamide] | > 5000 | –
Cc1cc2cnn(C3CNC3)c2cc1C(=O)NC1(c2cccc3ccccc23)CC1 [Compound 304, 1-(Azetidin-3-yl)-5-methyl-N-(1-(naphthalen-1-yl)cyclopropyl)-1H-indazole-6-carboxamide] | < 100 | –
Cc1cc2cn(C3CNC3)nc2cc1C(=O)NC1(c2cccc3ccccc23)CC1 [Compound 305, 2-(Azetidin-3-yl)-5-methyl-N-(1-(naphthalen-1-yl)cyclopropyl)-2H-indazole-6-carboxamide] | 100 to 1000 | –
Cc1ccc(OCCN(C)C)cc1C(=O)NC1(c2cccc(O)c2)CC1 [Compound 306, 5-(2-(Dimethylamino)ethoxy)-N-(1-(3-hydroxyphenyl)cyclopropyl)-2-methylbenzamide] | – | > 5000
Cc1ccc(OCCN(C)C)cc1C(=O)NC1(c2ccc(OCc3ccccc3)cc2)CC1 [Compound 307, N-(1-(4-(Benzyloxy)phenyl)cyclopropyl)-5-(2-(dimethylamino)ethoxy)-2-methylbenzamide] | > 5000 | –
Cc1ccc(OCCN(C)C)cc1C(=O)NC1(c2cccc(OCc3ccccc3)c2)CC1 [Compound 308, N-(1-(3-(Benzyloxy)phenyl)cyclopropyl)-5-(2-(dimethylamino)ethoxy)-2-methylbenzamide] | > 5000 | –
Cc1ccc(OC[C@H]2CCN2C)cc1C(=O)NC1(c2cccc3ccccc23)CC1 [Compound 309, (R)-2-Methyl-5-((1-methylazetidin-2-yl)methoxy)-N-(1-(naphthalen-1-yl)cyclopropyl)benzamide] | < 100 | –
Cc1ccc(OC[C@@H]2CCN2C)cc1C(=O)NC1(c2cccc3ccccc23)CC1 [Compound 310, (S)-2-Methyl-5-((1-methylazetidin-2-yl)methoxy)-N-(1-(naphthalen-1-yl)cyclopropyl)benzamide] | < 100 | –
Cc1ccc(OCCN(C)C)c(F)c1C(=O)NC1(c2cccc3ccccc23)CC1 [Compound 311, 3-(2-(Dimethylamino)ethoxy)-2-fluoro-6-methyl-N-(1-(naphthalen-1-yl)cyclopropyl)benzamide] | 100 to 1000 | –
Cc1ccc(CC(N)=O)cc1C(=O)NC1(c2cccc3ccccc23)CC1 [Compound 312, 5-(2-Amino-2-oxoethyl)-2-methyl-N-(1-(naphthalen-1-yl)cyclopropyl)benzamide] | 100 to 1000 | –
Cc1ccc(CC#N)cc1C(=O)NC1(c2cccc3ccccc23)CC1 [Compound 313, 5-(Cyanomethyl)-2-methyl-N-(1-(naphthalen-1-yl)cyclopropyl)benzamide] | 100 to 1000 | –
CCN1CCC1COc1ccc(C)c(C(=O)NC2(c3cccc4ccccc34)CC2)c1 (stereo not shown) [Compound 314, 5-((1-Ethylazetidin-2-yl)methoxy)-2-methyl-N-(1-(naphthalen-1-yl)cyclopropyl)benzamide] | < 100 | –
Cc1ccc(OCCNc2ccccc2)cc1C(=O)NC1(c2cccc3ccccc23)CC1 [Compound 315, 2-Methyl-N-(1-(naphthalen-1-yl)cyclopropyl)-5-(2-(phenylamino)ethoxy)benzamide] | 1000 to 5000 | –

SMILES | IC50 [1] [nM] | IC50 (PLpro enzymatic fluorescence assay, class symbols) [nM]
Cc1ccc(OCCCN)cc1C(=O)NC1(c2cccc3ccccc23)CC1 [Compound 316, 5-(3-Aminopropoxy)-2-methyl-N-(1-(naphthalen-1-yl)cyclopropyl)benzamide] | 100 to 1000 | –
Cc1ccc(OCCN(C)C)cc1C(=O)NC1(c2cccc(C)c2Br)CC1 [Compound 317, N-(1-(2-Bromo-3-methylphenyl)cyclopropyl)-5-(2-(dimethylamino)ethoxy)-2-methylbenzamide] | 100 to 1000 | –
Cc1ccc(OCCN(C)C)cc1C(=O)NC1(c2cccc(C)c2C)CC1 [Compound 318, 5-(2-(Dimethylamino)ethoxy)-N-(1-(2,3-dimethylphenyl)cyclopropyl)-2-methylbenzamide] | 1000 to 5000 | –
Cc1ccc(OCCN(C)C)cc1C(=O)NC1(c2cccc3cc(F)ccc23)CC1 [Compound 319, 5-(2-(Dimethylamino)ethoxy)-N-(1-(6-fluoronaphthalen-1-yl)cyclopropyl)-2-methylbenzamide] | < 100 | –
COc1cc(C2(NC(=O)c3cc(OCCN(C)C)ccc3C)CC2)c2ccccc2c1 [Compound 320, 5-(2-(Dimethylamino)ethoxy)-N-(1-(3-methoxynaphthalen-1-yl)cyclopropyl)-2-methylbenzamide] | < 100 | –
Cc1ccc(OCCN(C)C)cc1C(=O)NC1(c2ccccc2C(F)(F)F)CC1 [Compound 321, 5-(2-(Dimethylamino)ethoxy)-2-methyl-N-(1-(2-(trifluoromethyl)phenyl)cyclopropyl)benzamide] | 100 to 1000 | –
Cc1ccc(OCC(N)Cc2ccccc2)cc1C(=O)NC1(c2cccc3ccccc23)CC1 (stereo not shown) [Compound 322, 5-(2-Amino-3-phenylpropoxy)-2-methyl-N-(1-(naphthalen-1-yl)cyclopropyl)benzamide] | < 100 | –
Cc1ccc(OCC2CCN2C(C)C)cc1C(=O)NC1(c2cccc3ccccc23)CC1 (stereo not shown) [Compound 323, 5-((1-Isopropylazetidin-2-yl)methoxy)-2-methyl-N-(1-(naphthalen-1-yl)cyclopropyl)benzamide] | < 100 | –
Cc1ccc(OCC(C)N)cc1C(=O)NC1(c2cccc3ccccc23)CC1 (stereo not shown) [Compound 324, 5-(2-Aminopropoxy)-2-methyl-N-(1-(naphthalen-1-yl)cyclopropyl)benzamide] | < 100 | –
Cc1ccc(OCCN(C)C)cc1C(=O)NC1(c2cccc(-c3ccsc3)c2)CC1 [Compound 325, 5-(2-(Dimethylamino)ethoxy)-2-methyl-N-(1-(3-(thiophen-3-yl)phenyl)cyclopropyl)benzamide] | 100 to 1000 | –
Cc1ccc(OCCN(C)C)cc1C(=O)NC1(c2ccccc2Cl)CC1 [Compound 326, N-(1-(2-chlorophenyl)cyclopropyl)-5-(2-(dimethylamino)ethoxy)-2-methylbenzamide] | 1000 to 5000 | –
Cc1ccc(OCCN(C)C)cc1C(=O)NC1(c2ccccc2OCc2ccccc2)CC1 [Compound 327, N-(1-(2-(Benzyloxy)phenyl)cyclopropyl)-5-(2-(dimethylamino)ethoxy)-2-methylbenzamide] | 1000 to 5000 | –
Cc1ccc(OCCN(C)C)cc1C(=O)NC1(c2cccc3c2CCCC3)CC1 [Compound 329, 5-(2-(Dimethylamino)ethoxy)-2-methyl-N-(1-(5,6,7,8-tetrahydronaphthalen-1-yl)cyclopropyl)benzamide] | 100 to 1000 | –
Cc1ccc(OCC2CCN2Cc2ccccc2)cc1C(=O)NC1(c2cccc3ccccc23)CC1 (stereo not shown) [Compound 330, 5-((1-Benzylazetidin-2-yl)methoxy)-2-methyl-N-(1-(naphthalen-1-yl)cyclopropyl)benzamide] | < 100 | –
Cc1ccc(OCC2CCN2c2ccccc2)cc1C(=O)NC1(c2cccc3ccccc23)CC1 (stereo not shown) [Compound 331, 2-Methyl-N-(1-(naphthalen-1-yl)cyclopropyl)-5-((1-phenylazetidin-2-yl)methoxy)benzamide] | > 5000 | –
Cc1ccc(OCC2CCN2CC2CC2)cc1C(=O)NC1(c2cccc3ccccc23)CC1 (stereo not shown) [Compound 332, 5-((1-(Cyclopropylmethyl)azetidin-2-yl)methoxy)-2-methyl-N-(1-(naphthalen-1-yl)cyclopropyl)benzamide] | < 100 | –
Cc1ccc(OCCN(C)C)cc1C(=O)NC1(c2cccc3ccncc23)CC1 [Compound 333, 5-(2-(Dimethylamino)ethoxy)-N-(1-(isoquinolin-8-yl)cyclopropyl)-2-methylbenzamide] | 100 to 1000 | –
Cc1cc2c3c([nH]c2cc1C(=O)NC1(c2cccc4ccccc24)CC1)C(=O)CC3 [Compound 334, 7-Methyl-N-(1-(naphthalen-1-yl)cyclopropyl)-3-oxo-1,2,3,4-tetrahydrocyclopenta[b]indole-6-carboxamide] | 1000 to 5000 | –
Cc1ccc(OCCN(C)C)cc1C(=O)NC1(c2cccc(Cl)c2Cl)CC1 [Compound 335, N-(1-(2,3-Dichlorophenyl)cyclopropyl)-5-(2-(dimethylamino)ethoxy)-2-methylbenzamide] | 100 to 1000 | –
Cc1ccc(OCCN(C)C)cc1C(=O)NC1(c2cccc(Br)c2C)CC1 [Compound 336, N-(1-(3-Bromo-2-methylphenyl)cyclopropyl)-5-(2-(dimethylamino)ethoxy)-2-methylbenzamide] | 100 to 1000 | –
